Results on three molecules are retold here after article PMC4379176, “Unsaturation of Very-Long-Chain Ceramides Protects Plant from Hypoxia-Induced Damages by Modulating Ethylene Signaling in Arabidopsis” (PLoS Genetics, 2015).

Read-outs that look alike come from different tables or passages of the source.

Test [1] has as its target T1, rCTR1 (Arabidopsis thaliana, UniProt Q05609).
T1 construct: gene CTR1; full-length CTR1 coding region, N-terminal GST fusion (pGEX-6P-1), E. coli BL21 (DE3); tag kept (detected by anti-GST)
T1 sequence (Q05609 1-821): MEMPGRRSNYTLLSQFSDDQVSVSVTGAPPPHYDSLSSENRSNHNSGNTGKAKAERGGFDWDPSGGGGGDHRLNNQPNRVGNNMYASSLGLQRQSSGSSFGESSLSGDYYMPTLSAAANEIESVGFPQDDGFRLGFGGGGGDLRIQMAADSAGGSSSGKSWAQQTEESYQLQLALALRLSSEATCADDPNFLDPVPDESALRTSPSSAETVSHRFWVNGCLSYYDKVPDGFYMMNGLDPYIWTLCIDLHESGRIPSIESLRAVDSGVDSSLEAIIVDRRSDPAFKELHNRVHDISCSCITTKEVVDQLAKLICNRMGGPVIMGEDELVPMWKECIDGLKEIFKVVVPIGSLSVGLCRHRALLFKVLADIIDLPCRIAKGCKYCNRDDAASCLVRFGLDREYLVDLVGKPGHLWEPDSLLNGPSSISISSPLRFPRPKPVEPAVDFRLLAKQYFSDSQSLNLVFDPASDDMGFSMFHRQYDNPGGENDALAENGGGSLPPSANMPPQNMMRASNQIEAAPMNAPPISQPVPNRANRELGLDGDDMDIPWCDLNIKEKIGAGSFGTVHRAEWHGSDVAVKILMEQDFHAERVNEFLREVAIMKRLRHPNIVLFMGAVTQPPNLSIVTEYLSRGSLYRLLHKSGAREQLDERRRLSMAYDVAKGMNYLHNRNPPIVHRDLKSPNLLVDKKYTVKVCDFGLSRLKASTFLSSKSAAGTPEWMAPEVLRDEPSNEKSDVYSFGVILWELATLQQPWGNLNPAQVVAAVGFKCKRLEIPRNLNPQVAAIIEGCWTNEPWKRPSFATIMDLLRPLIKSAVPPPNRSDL
As to the kind of experiment: microscale thermophoresis. The class given is binding. An excerpt: microscale thermophoresis on rCTR1

For test [2], the target named is T2, rCTR1-K (Arabidopsis thaliana, UniProt Q05609).
T2 construct: gene CTR1; tag kept
As to the kind of experiment: microscale thermophoresis. The class given is binding. The following applies: liposomes of the lipid, 10 nM RED-labelled protein, 50 mM Tris-HCl pH 7.4, 150 mM NaCl, 10 mM MgCl2, 0.05% Tween-20. The text has this:
microscale thermophoresis on rCTR1-K
Background: MST reads how a fluorescent partner responds to local heating, with and without ligand.

Test [3] has as its target T1, rCTR1. As to the kind of experiment: TR-FRET kinase assay (HTRF KinEASE, STK Substrate 2-biotin). Conditions: liposomes pre-incubated 30 min at 4°C; 100 μM ATP, 1 μM STK Substrate 2-biotin; room temperature; inhibition. The class given is biochemical. (TR-FRET usually uses a lanthanide donor and a delayed reading to cut background.)
Test [4] concerns the target T2, rCTR1-K. The test is described as above. The class given is biochemical. The following applies: liposomes pre-incubated 30 min at 4°C; 100 μM ATP, 1 μM STK Substrate 2-biotin; room temperature; inhibition.
[5] abbreviates: read-out: Dissociation Constants (K d) / 24:1-Cer.

18:0-Cer: the Kd is 50.6 ± 5.2 µM in test [1] (liposomes of the lipid, 10 nM RED-labelled protein, 50 mM Tris-HCl pH 7.4, 150 mM NaCl, 10 mM MgCl2, 0.05% Tween-20, highest liposome concentration 50 μM, no binding seen on filters, read-out: Dissociation Constants (K d) / 18:0-Cer) and 49.3 ± 7 µM in test [2] (read-out: Dissociation Constants (K d) / 18:0-Cer).
Consider 24:0-Cer, for which the Kd in test [1] (liposomes of the lipid, 10 nM RED-labelled protein, 50 mM Tris-HCl pH 7.4, 150 mM NaCl, 10 mM MgCl2, 0.05% Tween-20, read-out: Dissociation Constants (K d) / 24:0-Cer) amounted to 10.8 ± 1.3 µM; in test [2] (read-out: Dissociation Constants (K d) / 24:0-Cer) it was 4.3 ± 1.3 µM.
With `CCCCCCCC/C=C\CCCCCCCCCCCCCC(=O)N[C@@H](CO)[C@H](O)/C=C/CCCCCCCCCCCCC` [24:1-Cer], the “relative CTR1 activity at 1 nM” value in test [3] was “both rCTR1 and rCTR1-K proteins exhibited decreased kinase activities”; in test [4], “both rCTR1 and rCTR1-K proteins exhibited decreased kinase activities”. Also, the Kd in test [1] (setting [5]) was determined as 1.6 ± 0.1 µM; in test [2] (setting [5]), 1 ± 0.1 µM.
